Patent publication US20260297081A1, “COMPOUNDS AND METHODS OF TREATING CANCERS” (Cullgen Inc., priority 2023, published 2026)

Key:
Assay type in all cases: cell-based
MCF7 cells = assay: Anti-proliferation (viability) of MCF7 cells (Table 7, FIG. 2B); conditions: Homo sapiens, MCF7, MCF7 cells, 3-6 days, 10-point serial dilution; read-out: GI IC50 in MCF-7
CDK4 [1] = target: T1, CDK4 (Homo sapiens, UniProt P11802+Q16531); assay: HiBiT detection of HiBiT-tagged CDK4 protein level in MCF7 cells, 16 hours (Table 8); set-up: expressed in transfected cells; host or cells: MCF7; conditions: MCF7 cells stably expressing HiBiT tagged target proteins; for activity at 0.01 µM: 10 nM, read-out: % CDK4 Relative Level (10 nM); for activity at 0.1 µM: 100 nM, read-out: % CDK4 Relative Level (100 nM)
Description: HiBiT detection system quantitatively measures total amounts of HiBiT-tagged proteins using a luminescent based method. MCF7 cells stably expressing HiBiT tagged target proteins were treated with heterobifunctional compounds at indicated concentrations for 16 hours, then lysed with Nano-Glo HiBiT Lytic detection reagents.
Target sequence in this assay (P11802 whole entry): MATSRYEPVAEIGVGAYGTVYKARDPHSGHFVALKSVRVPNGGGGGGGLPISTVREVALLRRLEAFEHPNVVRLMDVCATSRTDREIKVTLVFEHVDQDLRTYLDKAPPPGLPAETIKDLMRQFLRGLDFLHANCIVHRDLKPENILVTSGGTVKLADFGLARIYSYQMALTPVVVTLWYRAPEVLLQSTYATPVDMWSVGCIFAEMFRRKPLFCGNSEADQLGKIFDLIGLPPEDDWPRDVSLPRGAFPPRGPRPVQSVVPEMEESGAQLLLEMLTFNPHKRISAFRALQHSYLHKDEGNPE
Target sequence in this assay (P24385 whole entry partner): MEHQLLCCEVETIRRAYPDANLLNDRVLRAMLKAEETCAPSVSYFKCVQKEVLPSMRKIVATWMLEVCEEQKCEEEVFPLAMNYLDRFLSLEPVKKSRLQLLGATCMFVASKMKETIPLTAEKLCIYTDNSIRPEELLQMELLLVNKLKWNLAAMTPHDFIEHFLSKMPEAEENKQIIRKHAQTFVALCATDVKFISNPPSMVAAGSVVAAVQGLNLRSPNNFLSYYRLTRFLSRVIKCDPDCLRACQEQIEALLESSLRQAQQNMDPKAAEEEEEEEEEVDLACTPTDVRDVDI
Target sequence in this assay (Q16531 2-1140 limits assumed): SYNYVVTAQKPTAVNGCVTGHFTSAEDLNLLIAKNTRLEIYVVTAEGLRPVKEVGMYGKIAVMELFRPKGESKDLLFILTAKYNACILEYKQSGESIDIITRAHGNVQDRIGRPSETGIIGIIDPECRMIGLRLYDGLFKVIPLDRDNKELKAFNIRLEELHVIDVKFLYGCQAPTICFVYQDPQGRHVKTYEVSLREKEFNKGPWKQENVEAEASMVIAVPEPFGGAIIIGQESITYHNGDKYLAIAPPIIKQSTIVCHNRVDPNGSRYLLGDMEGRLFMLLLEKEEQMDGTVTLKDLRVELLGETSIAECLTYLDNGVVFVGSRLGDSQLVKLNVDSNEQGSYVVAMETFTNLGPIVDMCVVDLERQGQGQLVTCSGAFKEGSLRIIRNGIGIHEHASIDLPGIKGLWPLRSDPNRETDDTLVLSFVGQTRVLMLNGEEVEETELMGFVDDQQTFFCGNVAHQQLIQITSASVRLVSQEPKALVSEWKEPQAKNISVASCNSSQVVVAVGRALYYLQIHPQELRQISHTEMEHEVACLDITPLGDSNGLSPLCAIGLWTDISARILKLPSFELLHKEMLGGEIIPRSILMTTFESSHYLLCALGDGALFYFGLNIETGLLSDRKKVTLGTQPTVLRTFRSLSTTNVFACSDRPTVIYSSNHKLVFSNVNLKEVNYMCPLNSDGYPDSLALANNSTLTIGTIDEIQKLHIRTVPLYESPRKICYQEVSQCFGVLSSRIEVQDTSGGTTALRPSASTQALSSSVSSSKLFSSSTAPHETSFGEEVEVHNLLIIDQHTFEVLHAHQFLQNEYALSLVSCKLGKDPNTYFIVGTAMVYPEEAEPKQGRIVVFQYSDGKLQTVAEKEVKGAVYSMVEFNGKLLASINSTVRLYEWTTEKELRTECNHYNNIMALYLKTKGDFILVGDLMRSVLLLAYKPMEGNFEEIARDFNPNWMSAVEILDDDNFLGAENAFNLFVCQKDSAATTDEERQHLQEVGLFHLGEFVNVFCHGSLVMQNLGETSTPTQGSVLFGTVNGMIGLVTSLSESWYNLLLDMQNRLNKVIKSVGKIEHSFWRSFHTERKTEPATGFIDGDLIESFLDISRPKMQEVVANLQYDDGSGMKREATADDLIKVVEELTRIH

CDK4 [2] = target: T1, CDK4; assay: CDK4 percentage degradation in Calu-1 cells (Table 6); set-up: Cells that express cyclin D1-3 and CDK4/6 proteins were treated with heterobifunctional compounds; endogenous in cells; host or cells: Calu-1; conditions: 16 hours; for inhibition at 0.04 µM: 40 nM; for inhibition at 0.2 µM: 200 nM
Method in brief: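 Calu-1 cells exposed to heterobifunctional compounds at 40 nM or 200 nM for 16 h. Cyclin D1 and CDK4 levels measured by Western blot of RIPA lysates (BCA-normalised loading), bands quantified by densitometry and expressed as percentage degradation.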
Target sequence in this assay (P11802 2-303 limits assumed): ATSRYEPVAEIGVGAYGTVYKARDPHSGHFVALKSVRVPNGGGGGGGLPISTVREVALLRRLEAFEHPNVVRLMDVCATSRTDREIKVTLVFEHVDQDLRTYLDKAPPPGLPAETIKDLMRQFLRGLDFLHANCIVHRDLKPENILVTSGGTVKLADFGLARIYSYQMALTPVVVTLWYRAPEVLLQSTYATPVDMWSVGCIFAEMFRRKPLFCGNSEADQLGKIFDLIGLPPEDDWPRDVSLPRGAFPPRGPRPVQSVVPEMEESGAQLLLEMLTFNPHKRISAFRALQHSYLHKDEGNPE
Target sequence in this assay (P24385 whole entry partner): as the sequence (P24385 whole entry partner) above
Target sequence in this assay (Q16531 2-1140 limits assumed): as the sequence (Q16531 2-1140 limits assumed) above

Structure (SMILES)	IC50 (MCF7 cells)	activity at 0.01 µM (CDK4 [1])	activity at 0.1 µM (CDK4 [1])	inhibition at 0.04 µM (CDK4 [2])	inhibition at 0.2 µM (CDK4 [2])
CC(=O)c1c(C)c2cnc(Nc3ccc(N4CCN(CCC(=O)N5CCC(Nc6nc(NC(C)C)ccc6C(=O)Nc6ccc(N(C)C)nn6)CC5)CC4)cn3)nc2n(C2CCCC2)c1=O [CPD-301, 2-((1-(3-(4-(6-((6-acetyl-8-cyclopentyl-5-methyl-7-oxo-7,8-dihydropyrido[2,3-d]pyrimidin-2-yl)amino)pyridin-3-yl)piperazin-1-yl)propanoyl)piperidin-4-yl)amino)-N-(6-(dimethylamino)pyridazin-3-yl)-6-(isopropylamino)nicotinamide]	< 0.05 µM	55 to 85%	55 to 85%	< 30%	< 30%
CC(=O)c1c(C)c2cnc(Nc3ccc(N4CCN(CCC(=O)N5CC6(CC(Nc7nc(NC(C)C)ccc7C(=O)Nc7cc(C)n(C)n7)C6)C5)CC4)cn3)nc2n(C2CCCC2)c1=O [CPD-302, 2-((2-(3-(4-(6-((6-acetyl-8-cyclopentyl-5-methyl-7-oxo-7,8-dihydropyrido[2,3-d]pyrimidin-2-yl)amino)pyridin-3-yl)piperazin-1-yl)propanoyl)-2-azaspiro[3.3]heptan-6-yl)amino)-N-(1,5-dimethyl-1H-pyrazol-3-yl)-6-(isopropylamino)nicotinamide]	< 0.05 µM	55 to 85%	55 to 85%	< 30%	< 30%
CC(=O)c1c(C)c2cnc(Nc3ccc(N4CCN(CCC(=O)N5CC6(CC(Nc7nc(NC(C)C)ccc7C(=O)Nc7ccc(N(C)C)nn7)C6)C5)CC4)cn3)nc2n(C2CCCC2)c1=O [CPD-305, 2-((2-(3-(4-(6-((6-acetyl-8-cyclopentyl-5-methyl-7-oxo-7,8-dihydropyrido[2,3-d]pyrimidin-2-yl)amino)pyridin-3-yl)piperazin-1-yl)propanoyl)-2-azaspiro[3.3]heptan-6-yl)amino)-N-(6-(dimethylamino)pyridazin-3-yl)-6-(isopropylamino)nicotinamide]	< 0.05 µM	55 to 85%	55 to 85%	30 to 50%	30 to 50%
CNc1ccc(C(=O)Nc2ccc(N(C)C)nn2)c(NCCCC(=O)N2CCN(c3ccc(Nc4ncc5cc6n(c5n4)C4(CCCCC4)CNC6=O)nc3)CC2)n1 [CPD-633, N-(6-(dimethylamino)pyridazin-3-yl)-6-(methylamino)-2-((4-oxo-4-(4-(6-((6′-oxo-7′,8′-dihydro-6′H-spiro[cyclohexane-1,9′-pyrazino[1′,2′:1,5]pyrrolo[2,3-d]pyrimidin]-2′-yl)amnion)pyridin-3-yl)piperazin-1-yl)butyl)amino)nicotinamide]	> 0.1 µM	55 to 85%	> 85%	–	–
CNc1ccc(C(=O)Nc2ccc(N(C)C)nn2)c(NCCCCC(=O)N2CCN(c3ccc(Nc4ncc5cc6n(c5n4)C4(CCCCC4)CNC6=O)nc3)CC2)n1 [CPD-634, N-(6-(dimethylamino)pyridazin-3-yl)-6-(methylamino)-2-((5-oxo-5-(4-(6-((6′-oxo-7′,8′-dihydro-6′H-spiro[cyclohexane-1,9′-pyrazino[1′,2′:1,5]pyrrolo[2,3-d]pyrimidin]-2′-yl)amino)pyridin-3-yl)piperazin-1-yl)pentyl)amino)nicotinamide]	> 0.1 µM	55 to 85%	55 to 85%	–	–
CNc1ccc(C(=O)Nc2ccc(N(C)C)nn2)c(NCCCCCC(=O)N2CCN(c3ccc(Nc4ncc5cc6n(c5n4)C4(CCCCC4)CNC6=O)nc3)CC2)n1 [CPD-635, N-(6-(dimethylamino)pyridazin-3-yl)-6-(methylamino)-2-((6-oxo-6-(4-(6-((6′-oxo-7′,8′-dihydro-6′H-spiro[cyclohexane-1,9′-pyrazino[1′,2′:1,5]pyrrolo[2,3-d]pyrimidin]-2′-yl)amino)pyridin-3-yl)piperazin-1-yl)hexyl)amino)nicotinamide]	> 0.1 µM	55 to 85%	55 to 85%	–	–
CNc1ccc(C(=O)Nc2ccc(N(C)C)nn2)c(NCCOCCOCCC(=O)N2CCN(c3ccc(Nc4ncc5cc6n(c5n4)C4(CCCCC4)CNC6=O)nc3)CC2)n1 [CPD-639, N-(6-(dimethylamino)pyridazin-3-yl)-6-(methylamino)-2-((2-(2-(3-oxo-3-(4-(6-((6′-oxo-7′,8′-dihydro-6′H-spiro[cyclohexane-1,9′-pyrazino[1′,2′:1,5]pyrrolo[2,3-d]pyrimidin]-2′-yl)amino)pyridin-3-yl)piperazin-1-yl)propoxy)ethoxy)ethyl)amino)nicotinamide]	> 0.1 µM	> 85%	> 85%	–	–

Next, values leading:

IC50 (MCF7 cells)	activity at 0.01 µM (CDK4 [1])	activity at 0.1 µM (CDK4 [1])	inhibition at 0.04 µM (CDK4 [2])	inhibition at 0.2 µM (CDK4 [2])	Structure (SMILES)
> 0.1 µM	55 to 85%	55 to 85%	–	–	CNc1ccc(C(=O)Nc2ccc(N(C)C)nn2)c(NCCCCCCCNC(=O)CN2CCN(c3ccc(Nc4ncc5cc(C(=O)N(C)C)n(C6CCCC6)c5n4)nc3)CC2)n1 [CPD-629, 7-cyclopentyl-2-((5-(4-(2-((7-((3-((6-(dimethylamino)pyridazin-3-yl)carbamoyl)-6-(methylamino)pyridin-2-yl)amino)heptyl)amino)-2-oxoethyl)piperazin-1-yl)pyridin-2-yl)amino)-N,N-dimethyl-7H-pyrrolo[2,3-d]pyrimidine-6-carboxamide]
> 0.1 µM	55 to 85%	55 to 85%	–	–	CNc1ccc(C(=O)Nc2ccc(N(C)C)nn2)c(NCCCCCCCCNC(=O)CN2CCN(c3ccc(Nc4ncc5cc(C(=O)N(C)C)n(C6CCCC6)c5n4)nc3)CC2)n1 [CPD-630, 7-cyclopentyl-2-((5-(4-(2-((8-((3-((6-(dimethylamino)pyridazin-3-yl)carbamoyl)-6-(methylamino)pyridin-2-yl)amino)octyl)amino)-2-oxoethyl)piperazin-1-yl)pyridin-2-yl)amino)-N,N-dimethyl-7H-pyrrolo[2,3-d]pyrimidine-6-carboxamide]
> 0.1 µM	55 to 85%	55 to 85%	–	–	CNc1ccc(C(=O)Nc2ccc(N(C)C)nn2)c(NCCCCCCC(=O)N2CCN(c3ccc(Nc4ncc5cc6n(c5n4)C4(CCCCC4)CNC6=O)nc3)CC2)n1 [CPD-636, N-(6-(dimethylamino)pyridazin-3-yl)-6-(methylamino)-2-((7-oxo-7-(4-(6-((6′-oxo-7′,8′-dihydro-6′H-spiro[cyclohexane-1,9′-pyrazino[1′,2′:1,5]pyrrolo[2,3-d]pyrimidin]-2′-yl)amino)pyridin-3-yl)piperazin-1-yl)heptyl)amino)nicotinamide]
> 0.1 µM	55 to 85%	55 to 85%	–	–	CNc1ccc(C(=O)Nc2ccc(N(C)C)nn2)c(NCCCCNC(=O)CN2CCN(c3ccc(Nc4ncc5cc6n(c5n4)C4(CCCCC4)CNC6=O)nc3)CC2)n1 [CPD-642, N-(6-(dimethylamino)pyridazin-3-yl)-6-(methylamino)-2-((4-(2-(4-(6-((6′-oxo-7′,8′-dihydro-6′H-spiro[cyclohexane-1,9′-pyrazino[1′,2′:1,5]pyrrolo[2,3-d]pyrimidin]-2′-yl)amino)pyridin-3-yl)piperazin-1-yl)acetamido)butyl)amino)nicotinamide]
> 0.1 µM	> 85%	55 to 85%	–	–	CNc1ccc(C(=O)Nc2ccc(N(C)C)nn2)c(NCCCCCNC(=O)CN2CCN(c3ccc(Nc4ncc5cc6n(c5n4)C4(CCCCC4)CNC6=O)nc3)CC2)n1 [CPD-643]
> 0.1 µM	> 85%	> 85%	–	–	CNc1ccc(C(=O)Nc2ccc(N(C)C)nn2)c(NCCCCCCNC(=O)CN2CCN(c3ccc(Nc4ncc5cc6n(c5n4)C4(CCCCC4)CNC6=O)nc3)CC2)n1 [CPD-644, N-(6-(dimethylamino)pyridazin-3-yl)-6-(methylamino)-2-((6-(2-(4-(6-((6′-oxo-7′,8′-dihydro-6′H-spiro[cyclohexane-1,9′-pyrazino[1′,2′:1,5]pyrrolo[2,3-d]pyrimidin]-2′-yl)amino)pyridin-3-yl)piperazin-1-yl)acetamido)hexyl)amino)nicotinamide]
> 0.1 µM	> 85%	> 85%	–	–	CNc1ccc(C(=O)Nc2ccc(N(C)C)nn2)c(NCCCCCCCNC(=O)CN2CCN(c3ccc(Nc4ncc5cc6n(c5n4)C4(CCCCC4)CNC6=O)nc3)CC2)n1 [CPD-645, N-(6-(dimethylamino)pyridazin-3-yl)-6-(methylamino)-2-((7-(2-(4-(6-((6′-oxo-7′,8′-dihydro-6′H-spiro[cyclohexane-1,9′-pyrazino[1′,2′:1,5]pyrrolo[2,3-d]pyrimidin]-2′-yl)amino)pyridin-3-yl)piperazin-1-yl)acetamido)heptyl)amino)nicotinamide]
> 0.1 µM	> 85%	> 85%	–	–	CNc1ccc(C(=O)Nc2ccc(N(C)C)nn2)c(NCCCCCCCCNC(=O)CN2CCN(c3ccc(Nc4ncc5cc6n(c5n4)C4(CCCCC4)CNC6=O)nc3)CC2)n1 [CPD-646, N-(6-(dimethylamino)pyridazin-3-yl)-6-(methylamino)-2-((8-(2-(4-(6-((6′-oxo-7′,8′-dihydro-6′H-spiro[cyclohexane-1,9′-pyrazino[1′,2′:1,5]pyrrolo[2,3-d]pyrimidin]-2′-yl)amino)pyridin-3-yl)piperazin-1-yl)acetamido)octyl)amino)nicotinamide]
